# US20150218212A1, “FLUORINATED EPOXYKETONE-BASED TETRAPEPTIDE COMPOUNDS AND USES THEREOF AS PROTEASOME INHIBITORS” (FLUORINOV PHARMA INC., priority 2012, published 2015)
# Columns and labels:
# Type in all cases: cell-based, human
# OVCAR-4 = assay: NCI screening panel, OVCAR-4 (Ovarian Cancer)
# Description: (§1) Representative compounds of Formula I were screened using the National Cancer Institute (NCI) screening panel, which consists of a panel of human tumor cell lines, representing leukemia, melanoma, and cancers of the lung, colon, ovary, breast, prostate and renal system.
# (§2) After 24 h, two plates of each cell line are fixed in situ with TCA, to represent a measurement of the cell population for each cell line at the time of drug addition (Tz). Experimental drugs are solubilised in dimethyl sulfoxide at 400-fold the desired final maximum test concentration and stored frozen prior to use. At the time of drug addition, an aliquot of frozen concentrate is thawed and diluted to twice the desired final maximum test concentration with complete medium containing 50 μg/mL gentamicin. Additional four, 10-fold or ½ log serial dilutions are made to provide a total of five drug concentrations plus control. Aliquots of 100 μl of these different drug dilutions are added to the appropriate microtiter wells already containing 100 μl of medium, resulting in the required final drug concentrations.
# (§3) Following drug addition, the plates are incubated for an additional 48 h at 37° C., 5% CO2, 95% air, and 100% relative humidity. For adherent cells, the assay is terminated by the addition of cold TCA (trichloroacetic acid). Cells are fixed in situ by the gentle addition of 50 μl of cold 50% (w/v) TCA (final concentration, 10% TCA) and incubated for 60 minutes at 4° C. The supernatant is discarded, and the plates are washed five times with tap water and air dried. Sulforhodamine B (SRB) solution (100 μl) at 0.4% (w/v) in 1% acetic acid is added to each well, and plates are incubated for 10 minutes at room temperature. After staining, unbound dye is removed by washing five times with 1% acetic acid and the plates are air dried. Bound stain is subsequently solubilised with 10 mM trizma base, and the absorbance is read on an automated plate reader at a wavelength of 515 nm. For suspension cells, the methodology is the same except that the assay is terminated by fixing settled cells at the bottom of the wells by gently adding 50 μl of 80% TCA (final concentration, 16% TCA). Using the seven absorbance measurements [time zero, (Tz), control growth, (C), and test growth in the presence of drug at the five concentration levels (Ti)], the percentage growth is calculated at each of the drug concentrations levels. Percentage growth inhibition is calculated as: [(Ti−Tz)/(C−Tz)]×100 for concentrations for which Ti>/=Tz and [(Ti−Tz)/Tz]×100 for concentrations for which Ti<Tz.
# (§4) Three dose response parameters are calculated for each experimental agent. Growth inhibition of 50% (GI50) is calculated from [(Ti−Tz)/(C−Tz)]×100=50, which is the drug concentration resulting in a 50% reduction in the net protein increase (as measured by SRB staining) in control cells during the drug incubation. The drug concentration resulting in total growth inhibition (TGI) is calculated from Ti=Tz. The LC50 (concentration of drug resulting in a 50% reduction in the measured protein at the end of the drug treatment as compared to that at the beginning) indicating a net loss of cells following treatment is calculated from [(Ti−Tz)/Tz]×100=−50. Values are calculated for each of these three parameters if the level of activity is reached. However, if the effect is not reached or is exceeded, the value for that parameter is expressed as greater or less than the maximum or minimum concentration tested.
# A549/ATCC = assay: NCI screening panel, A549/ATCC (Non-Small Cell Lung Cancer)
# Description: as §1, §2, §3, §4
# CAKI-1 = assay: NCI screening panel, CAKI-1 (Renal Cancer)
# Description: as §1, §2, §3, §4
# MCF7 = assay: NCI screening panel, MCF7 (Breast Cancer)
# Description: as §1, §2, §3, §4
# NCI-H226 = assay: NCI screening panel, NCI-H226 (Non-Small Cell Lung Cancer)
# Description: as §1, §2, §3, §4
# MOLT-4 = assay: NCI screening panel, MOLT-4 (Leukemia)
# Description: as §1, §2, §3, §4
# HCT-15 = assay: NCI screening panel, HCT-15 (Colon Cancer)
# Description: as §1, §2, §3, §4
# RPMI-8226 = assay: NCI screening panel, RPMI-8226 (Leukemia)
# Description: as §1, §2, §3, §4
# LOX IMVI = assay: NCI screening panel, LOX IMVI (Melanoma)
# Description: as §1, §2, §3, §4
# NCI-H460 = assay: NCI screening panel, NCI-H460 (Non-Small Cell Lung Cancer)
# Description: as §1, §2, §3, §4
# SR = assay: NCI screening panel, SR (Leukemia)
# Description: as §1, §2, §3, §4
compound,measurement,setting,value
"CC(C)C[C@H](NC(=O)[C@H](COC(F)F)NC(=O)CN1CCOCC1)C(=O)N[C@@H](COC(F)F)C(=O)N[C@@H](CC(C)C)C(=O)[C@@]1(C)CO1 [Example 1, (2S)—N-[(1S)-1-(difluoromethoxymethyl)-2-[[(1S)-3-methyl-1-[(2R)-2-methyloxirane-2-carbonyl]butyl]amino]-2-oxo-ethyl]-2-[[(2S)-3-(difluoromethoxy)-2-[(2-morpholinoacetyl)amino]propanoyl]amino]-4-methyl-pentanamide]",Log10GI50,OVCAR-4,−7.77
same,Log10LC50,OVCAR-4,>−4.00
same,Log10TGI50,OVCAR-4,−6.60
same,Log10GI50,A549/ATCC,−7.46
same,Log10LC50,A549/ATCC,>−4.00
same,Log10TGI50,A549/ATCC,−5.49
same,Log10GI50,CAKI-1,−6.29
same,Log10LC50,CAKI-1,>−4.00
same,Log10TGI50,CAKI-1,−5.24
same,Log10GI50,MCF7,<−8.00
same,Log10LC50,MCF7,>−4.00
same,Log10TGI50,MCF7,−5.18
same,Log10GI50,NCI-H226,−7.73
same,Log10LC50,NCI-H226,−7.07
same,Log10TGI50,NCI-H226,−7.40
same,Log10GI50,MOLT-4,−7.57
same,Log10LC50,MOLT-4,>−4.00
same,Log10TGI50,MOLT-4,−6.98
same,Log10GI50,HCT-15,−5.97
same,Log10LC50,HCT-15,>−4.00
same,Log10TGI50,HCT-15,>−4.00
same,Log10GI50,RPMI-8226,−7.56
same,Log10LC50,RPMI-8226,>−4.00
same,Log10TGI50,RPMI-8226,−7.05
same,Log10GI50,LOX IMVI,−7.85
same,Log10LC50,LOX IMVI,−7.16
same,Log10TGI50,LOX IMVI,−7.51
same,Log10GI50,NCI-H460,−7.30
same,Log10LC50,NCI-H460,>−4.00
same,Log10TGI50,NCI-H460,−6.39
same,Log10GI50,SR,−7.52
same,Log10LC50,SR,>−4.00
same,Log10TGI50,SR,−4.61
"CC(C)C[C@H](NC(=O)[C@H](COC(F)F)NC(=O)CN1CCOCC1)C(=O)N[C@@H](Cc1ccccc1)C(=O)N[C@@H](CC(C)C)C(=O)[C@@]1(C)CO1 [Example 2, (2S)-N-[(1S)-1-benzyl-2-[[(1S)-3-methyl-1-[(2R)-2-methyloxirane-2-carbonyl]butyl]-amino]-2-oxo-ethyl]-2-[[(2S)-3-(difluoromethoxy)-2-[(2-morpholinoacetyl)amino]propanoyl]amino]-4-methyl-pentanamide]",Log10GI50,OVCAR-4,−7.84
same,Log10LC50,OVCAR-4,>−4.00
same,Log10TGI50,OVCAR-4,−6.49
same,Log10GI50,A549/ATCC,−7.52
same,Log10LC50,A549/ATCC,>−4.00
same,Log10TGI50,A549/ATCC,−5.93
same,Log10GI50,CAKI-1,−6.68
same,Log10LC50,CAKI-1,>−4.00
same,Log10TGI50,CAKI-1,−5.93
same,Log10GI50,MCF7,<-8.00
same,Log10LC50,MCF7,>−4.00
same,Log10TGI50,MCF7,−4.94
same,Log10GI50,NCI-H226,−7.83
same,Log10LC50,NCI-H226,−7.12
same,Log10TGI50,NCI-H226,−7.48
same,Log10GI50,MOLT-4,<-8.00
same,Log10LC50,MOLT-4,>−4.00
same,Log10TGI50,MOLT-4,−5.79
same,Log10GI50,HCT-15,−6.40
same,Log10LC50,HCT-15,>−4.00
same,Log10TGI50,HCT-15,−4.66
same,Log10GI50,RPMI-8226,−7.98
same,Log10LC50,RPMI-8226,>−4.00
same,Log10TGI50,RPMI-8226,−7.24
same,Log10GI50,LOX IMVI,<−8.00
same,Log10LC50,LOX IMVI,−7.21
same,Log10TGI50,LOX IMVI,−7.62
same,Log10GI50,NCI-H460,−7.37
same,Log10LC50,NCI-H460,>−4.00
same,Log10TGI50,NCI-H460,−6.57
same,Log10GI50,SR,<−8.00
same,Log10LC50,SR,>−4.00
same,Log10TGI50,SR,>−4.00
